According to patent publication US7786097B2, “Tricyclic compounds, compositions and methods” (Pfizer Inc., priority 2007, dated 2010):

Experiments:
[1] = system: IL-1β production in human whole blood; assay: Ex vivo LPS-stimulated human whole blood, IL-1β; assay type: cell-based; settings: LPS 100 ng/ml, 22 hours, one donor
Experimental: (§1) Venous blood from human donors was collected as 10 ml aliquots in tubes containing sodium heparin (BD Vacutainer from Becton Dickinson and Company, Franklin Lakes, N.Y.). Blood was added to sterile polystyrene round bottom 96-well tissue culture plates (Corning Costar) at 100 μl/well, omitting the outside wells. Media (RPMI Medium 1640 with L-glutamine, Invitrogen Corporation, Carlsbad, Calif.) was added to the blood in 90 μl aliquots for a total volume of 190 μl. Outside wells were filled with 200 μl of media. Blood was placed in a humidified 37° C. incubator with 5% CO2 while compounds were prepared (nearly 60 minutes).
(§2) Compounds were prepared from 10 mM stock solutions in dimethylsulfoxide (DMSO, Sigma-Aldrich). […] Final DMSO and ethanol concentrations in the assay were 0.1% and 1.5%. The samples were gently triturated twice to mix and replaced in the incubator. LPS stock (E. coli serotype 0111:B4, Sigma-Aldrich), stored in aliquots of 100 μg/ml in RPMI at −20° C., was diluted 1/50 in RPMI to make a working stock solution. After 60 minutes of incubation, 10 μl of the prepared LPS working stock was added to the blood to a final concentration of 100 ng/ml, omitting wells to be used as negative control. The samples were again gently triturated and the plates incubated overnight for 22 hours. Following incubation, the blood was centrifuged at 1500×g for 5 minutes and the plasma removed to either freeze at −20° C. or assay for cytokine release.
(§3) IL-1β, IFNγ, IL-6, and TNFα protein levels were measured using Meso Scale assay kits (Meso Scale Discovery, Gaithersburg, Md.). Reagents were allowed to come to room temperature. Meso Scale plates were blocked with 30 μl of human plasma/serum assay diluent with gentle shaking for 60 minutes at room temperature. Plates were washed 3× with wash buffer (PBS, Invitrogen Corporation, with 0.05% Tween-20, Sigma-Aldrich). Calibrators for standard curves were prepared in human plasma/serum assay diluent as a […] serial dilution to achieve final concentrations ranging from 50000 pg/ml to 3.2 pg/ml. Samples and calibrators were added at 20 μl/well, then incubated at room temperature with gentle shaking for 90 minutes. Plates were again washed 3 times with wash buffer. Detection antibody was diluted in human plasma/serum antibody diluent to 1 μg/ml and added to the plate at 20 μl/well. Plates were incubated as before for 60 minutes and washed again. Read Buffer T<4×) was diluted 1:1 with mqH2O to 2 times concentration and 150 μl added to each well. Plates were analyzed on the SECTOR Imager 6000 (Meso Scale Discovery) to generate raw signal values.
(§4) IL-1β, IFN-γ, IL-6, and TNFα sample values were verified to be within the calibrator standard curves. Individual values were compared to positive and negative controls (vehicle treated blood with LPS and vehicle treated blood without LPS, respectively) to generate % inhibition. Triplicate values were averaged for each donor. The values for two donors were averaged (only one donor was used for IL-1β) and graphed using 4-parameter fit curves in the GraFit 5.0.11 application.

[2] = system: IL-6 production in human whole blood; assay: Ex vivo LPS-stimulated human whole blood, IL-6; assay type: cell-based; settings: LPS 100 ng/ml, 22 hours, mean of two donors
Experimental: as §1, §2, §3, §4

[3] = system: Mouse Collagen-Induced Arthritis (mCIA); assay: Therapeutic mouse collagen-induced arthritis (mCIA) model; assay type: in vivo, Male DBA/J mice; settings: mice, dosing day 34 through day 49
Text: Mouse Collagen-induced arthritis is a commonly used chronic, preclinical model of rheumatoid arthritis in which joint swelling and bone destruction occur following immunization with type II collagen. Reduction of disease incidence and severity has been shown previously to be predictive of disease-modification and signs and symptoms mitigation, respectively, in a clinical setting.
In the therapeutic mCIA model, induction of disease incidence and severity was synchronized via LPS stimulation. Male DBA/J mice were immunized with 100 ug of bovine type II collagen (bCII) on day 0. All mice received an intraperitoneal injection of 20 μg of LPS on day 28 and disease was allowed to develop through day 34. At day 34, all mice had disease (incidence=100%) with an average severity score of seven. Dosing of compounds was initiated in the therapeutic mode on day 34 and continued through day 49. Different treatments were compared by measuring the decrease in incidence (i.e., resolution of disease) and the decrease in severity of paw swelling over time.

Serum osteocalcin = Serum osteocalcin suppression, 28-day repeat dose mouse model; assay type: in vivo, Swiss Webster female mice; settings: mice
Experimental: The compounds were weighed and suspended in a vehicle of 0.5% methylcellulose/0.025% tween 20 (Sigma-Aldrich, St. Louis, Mo.). Compound suspensions were homogenized using a Polytron PT-3100 tissue homogenizer to create a very fine suspension and were then sonicated for 10 minutes using a water bath sonicator. Aliquots of each suspension were made for daily dosing at 0.2 ml/dose. Swiss Webster female mice, 10-12 weeks old, 28-29 grams, (Taconic, Germantown, N.Y.) were used in accordance with the guidelines of the Institutional Animal Care and Use Committee and in accordance with NIH guidelines on laboratory animal welfare. Mice were acclimated in the Pfizer animal facility for three to seven days prior to being utilized in a study. […] Each treatment group contained 5-10 mice. To establish a dosing regimen for the studies, a pilot pharmacodynamic time course experiment was conducted to quantify TNFα repression after a single ED80 dose.
Body weights were measured on the first and last day of each experiment. Blood samples were obtained after three weeks of dosing for a steady-state pharmacokinetic (PK) analysis. To assess compound effects on LPS-induced TNFα, all mice received an intraperitoneal injection of LPS (Salmonella typhosa, L-7895; Sigma-Aldrich, St. Louis) 2.5 hr after the last dose on day 28. Mice were sacrificed 90 minutes after LPS administration. Serum samples were quantified for osteocalcin and TNFα using the multiplex assays (Linco Research, Inc, St. Charles, Mo.; Luminex 100, Austin, Tex.). Samples were diluted 1:20 and the assay was run according to manufacturer's instructions. The osteocalcin standard was purchased separately (Biomedical Technologies Inc., Stoughton, Mass.). Mice were fasted for 4 hours before serum was collected for TNFα, and osteocalcin levels. For each experiment, outliers were detected by calculating the number of standard deviations from the mean of the group. If the value being examined was more than 2.5 standard deviations from the mean, it was excluded from the rest of the calculations.
The individual mouse percent inhibition values were fit to a four-parameter logistic model using the dose mean for each group.
ED50 and ED80 values were obtained for the various endpoints using a four-parameter logistic fit. For compounds which were tested multiple times, ED50 and ED80 values were obtained using four-parameter logistic fits of the combined data from multiple experiments.

Compound: C[C@]12C=CC(=O)C=C1CC[C@@H]1[C@@H]2[C@@H](O)C[C@@]2(C)[C@H]1CC[C@]2(O)C(=O)CO [Prednisolone]
- inhibition at 0.000457247 µM ([1]; 0.457247 nM): 9.65%
- inhibition at 0.00137174 µM ([1]; 1.371742 nM): 15.1%
- inhibition at 0.00411523 µM ([1]; 4.115226 nM): 21%
- inhibition at 0.0123457 µM ([1]; 12.34568 nM): 33.6%
- inhibition at 0.037037 µM ([1]; 37.03704 nM): 37.7%
- inhibition at 0.111111 µM ([1]; 111.1111 nM): 73.2%
- inhibition at 0.333333 µM ([1]; 333.3333 nM): 92.9%
- inhibition at 1 µM ([1]; 1000 nM): 94.9%
- inhibition at 0.000457247 µM ([2]; 0.457247 nM): 2.22%
- inhibition at 0.00137174 µM ([2]; 1.371742 nM): -0.941%
- inhibition at 0.00411523 µM ([2]; 4.115226 nM): -0.232%
- inhibition at 0.0123457 µM ([2]; 12.34568 nM): -0.417%
- inhibition at 0.037037 µM ([2]; 37.03704 nM): 5.03%
- inhibition at 0.111111 µM ([2]; 111.1111 nM): 11.7%
- inhibition at 0.333333 µM ([2]; 333.3333 nM): 40.3%
- inhibition at 1 µM ([2]; 1000 nM): 62.1%
- Therapeutic mCIA (ED80 dose) [3]: 5.5 mg/kg
- Serum osteocalcin EAUC50 (Serum osteocalcin; AUC 0-4 hr): 0.56 µg·h/mL
- Serum osteocalcin EAUC80 (Serum osteocalcin; AUC 0-4 hr): 1.60 µg·h/mL
- Osteocalcin Suppression (ED80 dose) (Serum osteocalcin; oral gavage 28 days, serum osteocalcin): 6.80 mg/kg
